Reference: US7495027B2, “3-aryl-4-hydroxyfuranone compounds and the human and animal health use thereof” (Wyeth, priority 2003, dated 2009)

Columns and labels:
[1] = Toxicity in treated gerbils (deaths or significant weight loss); type: in vivo; design: key: +: Toxicity is indicated for those groups having one or more animals expired; settings: single oral dose of 50 mg/kg
Method: In this evaluation, gerbils are infected with Trichostrongylus columbriformis infective larvae at a concentration of approximately 800 L3/mL. Larvae for gerbil infections are cultured from feces from sheep previously infected with T. colubriformis. One week post infection, test compounds are administered by gavage as a single oral dose of 50 mg/kg of body weight. For each group of 3 gerbils, 10 mg of test compound are dissolved in 2 mL of PEG 400:DMSO (1:2 v/v) and each animal is administered the test solution at a rate of 0.1 mL/10 g of body weight. […] All animals are observed daily for morbidity and mortality. Four days post-treatment, all animals are weighed and necropsied. Worm counts are conducted with the use of stereoscopes and counters.

[2] = system: Trichostrongylus columbriformis; test: In vivo efficacy against T. colubriformis in infected gerbils; settings: gerbils infected with T. colubriformis, single oral dose of 50 mg/kg by gavage, worm counts four days post-treatment, % mortality as compared to negative control
How it was run: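 Gerbils infected with ~800 L3/mL larvae were treated one week later by gavage with a single 50 mg/kg oral dose in PEG 400:DMSO (1:2 v/v), 3 animals per group. Necropsy four days post-treatment, with worms counted under stereoscopes.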

C. elegans = test: Efficacy against nematodes (C. elegans motility rating); design: key: 0: no effect; 7: reduced movement in 24 h; 8: dead in 24 h; 9: dead in 4 h; settings: observations at 4 h and 24 h postimmersion
How it was run: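 Mixed-stage C. elegans (~50 per well, L1 to adult) in M9 buffer exposed to test compound at 100 ppm, 150 ppm or 200 μM final. Motility of larvae and adults scored under dissecting microscope at 4 h and 24 h.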

| SMILES | Toxicity ([1]; groups of 3) | Mortality [2] [%] | Rating (C. elegans; dose 100 ppm) | Rating (C. elegans; dose 150 ppm) | Toxicity ([1]; groups of 3, 50 mg/kg) | Mortality ([2]; 50 mg/kg) [%] |
| --- | --- | --- | --- | --- | --- | --- |
| N#Cc1ccc(C2=C(O)C(=Cc3ccc(OC(F)(F)F)cc3)OC2=O)cc1 (mixture of isomers) [R=H; R1=4-CN—C6H4**; R2=4-OCF3—C6H4] | + | 90.00 | 9 |  |  |  |
| O=C1OC(=Cc2ccc(F)cc2)C(O)=C1c1ccc(Cl)cc1 (mixture of isomers) [R=H; R1=4-Cl—C6H4**; R2=4-F—C6H4] | + | 72.60 | 9 |  |  |  |
| O=C1OC(=Cc2ccc(Cl)c(Cl)c2)C(O)=C1c1ccc(OC(F)(F)F)cc1 (mixture of isomers) [R=H; R1=4-OCF3—C6H4**; R2=3,4-diCl—C6H3] | + | 100.0 | 9 |  |  |  |
| O=C1OC(=Cc2ccc(F)c(F)c2)C(O)=C1c1ccc(OC(F)(F)F)cc1 (mixture of isomers) [R=H; R1=4-OCF3—C6H4**; R2=3,4-diF—C6H3] | + | 100.0 | 9 |  |  |  |
| O=C1OC(=Cc2ccc(C(F)(F)F)cc2)C(O)=C1c1ccc(OC(F)(F)F)cc1 (mixture of isomers) [R=H; R1=4-OCF3—C6H4**; R2=4-CF3—C6H4] | + | 55.50 | 9 |  |  |  |
| N#Cc1ccc(C=C2OC(=O)C(c3ccc(OC(F)(F)F)cc3)=C2O)cc1 (mixture of isomers) [R=H; R1=4-OCF3—C6H4**; R2=4-CN—C6H4] | + | 88.90 | 9 |  |  |  |
| O=C1OC(=Cc2ccc(Cl)cc2)C(O)=C1c1ccc(OC(F)(F)F)cc1 (mixture of isomers) [R=H; R1=4-OCF3—C6H4**; R2=4-Cl—C6H4] | + | 100.0 | 9 |  |  |  |
| O=C1OC(=Cc2ccc(F)cc2)C(O)=C1c1ccc(OC(F)(F)F)cc1 (mixture of isomers) [R=H; R1=4-OCF3—C6H4**; R2=4-F—C6H4] | + | 0.00 | 9 |  |  |  |
| O=C1OC(=Cc2ccc(OC(F)(F)F)cc2)C(O)=C1c1ccc(OC(F)(F)F)cc1 (mixture of isomers) [R=H; R1=4-OCF3—C6H4**; R2=4-OCF3—C6H4] | + | 100.0 | 9 |  |  |  |
| O=C1O/C(=C\c2ccc(-c3ccccc3)cc2)C(O)=C1c1cc(C(F)(F)F)cc(C(F)(F)F)c1 [R=H; R1=3,5-diCF3—C6H3; R2=4-biphenyl] | + | 60.80 |  | 9 |  |  |
| O=C1O/C(=C\c2ccc(-c3ccccc3)cc2)C(O)=C1c1cc(Cl)cc(Cl)c1 [R=H; R1=3,5-diCl—C6H3; R2=4-biphenyl] | + | 52.60 |  | 9 |  |  |
| N#Cc1ccc(-c2ccc(/C=C3\OC(=O)C(c4ccc(Cl)cc4)=C3O)cc2)cc1 [R=H; R1=4-Cl—C6H4; R2=4-(4′-CN-biphenyl)] |  |  |  | 9 | + | 48.90 |
| O=C1O/C(=C\c2ccc(-c3ccc(Cl)cc3)cc2)C(O)=C1c1ccc(Cl)cc1 [R=H; R1=4-Cl—C6H4; R2=4-(4′-Cl-biphenyl)] | + | 61.33 |  | 9 |  |  |
| O=C1O/C(=C\c2ccc(Cl)cc2)C(O)=C1c1ccc(Cl)cc1 [R=H; R1=4-Cl—C6H4; R2=4-Cl—C6H4] | + | 79.78 |  | 9 |  |  |
